One series deals with Human plasma kallikrein (Homo sapiens (Human), UniProt P03952). Nature of the series: Determination of the IC50 for plasma kallikrein. Format: biochemical. Conditions: 25° C., substrate H-DPro-Phe-Arg-AFC; read-out: IC50 (human PKal). How it is done:
Human plasma kallikrein (Protogen) was incubated at 25° C. with the fluorogenic substrate H-DPro-Phe-Arg-AFC and various concentrations of the test compound. Residual enzyme activity (initial rate of reaction) was determined by measuring the change in […] at 410 nm and the IC50 value for the test compound was determined.

Another series has as its target Human KLK1 (Homo sapiens (Human), UniProt P06870). Nature of the series: Determination of the IC50 for KLK1. Type of series: biochemical. Conditions: 25° C., substrate H-DVal-Leu-Arg-AFC. How it is done:
Human KLK1 (Callbiochem) was incubated at 25° C. with the fluorogenic substrate H-DVal-Leu-Arg-AFC and various concentrations of the test compound. Residual enzyme activity (initial rate of reaction) was determined by measuring the change in […] at 410 nm and the IC50 value for the test compound was determined.

The target of the next series is Human FXIa (Homo sapiens (Human), UniProt P03951). Nature of the series: Determination of the % inhibition / IC50 for FXIa. Format: biochemical. Conditions: for IC50: 25° C., substrate Z-Gly-Pro-Arg-AFC. How it is done: FXIa inhibitory activity in vitro was determined using standard published methods (see e.g. Johansen et al., Int. J. Tiss. Reac. 1986, 8, 185; Shori et al., Biochem. Pharmacol., 1992, 43, 1209; Sturzebecher et al., Biol. Chem. Hoppe-Seyler, 1992, 373, 1025). […]
Human FXIa, sequence (P03951 388-625): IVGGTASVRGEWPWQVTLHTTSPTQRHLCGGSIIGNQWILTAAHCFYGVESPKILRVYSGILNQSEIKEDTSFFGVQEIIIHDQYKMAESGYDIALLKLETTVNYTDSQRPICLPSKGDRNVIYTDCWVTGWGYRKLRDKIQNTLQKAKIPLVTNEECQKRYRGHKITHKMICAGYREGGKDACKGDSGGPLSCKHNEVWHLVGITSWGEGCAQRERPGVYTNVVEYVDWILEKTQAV
Human FXIa, sequence (P03951 19-387): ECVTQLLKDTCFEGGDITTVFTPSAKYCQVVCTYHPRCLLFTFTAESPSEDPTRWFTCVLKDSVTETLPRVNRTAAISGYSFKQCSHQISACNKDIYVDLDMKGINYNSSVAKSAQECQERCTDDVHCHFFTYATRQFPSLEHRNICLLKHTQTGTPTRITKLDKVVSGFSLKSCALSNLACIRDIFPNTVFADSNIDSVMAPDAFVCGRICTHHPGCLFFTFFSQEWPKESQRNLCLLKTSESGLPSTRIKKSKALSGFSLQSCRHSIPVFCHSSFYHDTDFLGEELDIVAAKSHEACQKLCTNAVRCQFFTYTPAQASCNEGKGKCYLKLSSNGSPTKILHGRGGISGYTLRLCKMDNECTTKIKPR

Series [1] is described as follows: Intrinsic clearance in rat liver microsomes. Type of series: in vitro ADME. Conditions: rat liver microsomes 0.5 mg/mL, 5 μM test compound, 37° C.; read-out: rat liver microsome (Clint μL/min/mg protein). How it is done:
(§1) Rat or human liver microsomes (0.5 mg/mL; Corning) were incubated with 5 μM test compound at 37° C. on a shaking platform (150 rpm). Samples were taken at 0, 6, 12, 18, 24 and 60 min and test compound concentrations were determined by LCMS against a calibration curve.
Background: Microsomes from liver hold many membrane-bound enzymes, among them those of drug oxidation.

The target of the next series is Human Factor XIIa (Homo sapiens (Human), UniProt P00748). The series is described as follows: Factor XIIa inhibitory activity in vitro. Conditions: 25° C., substrate H-DPro-Phe-Arg-AFC; read-out: IC50 (human FXIIa). Format: biochemical. How it is done:
Human Factor XIIa (Enzyme Research Laboratories) was incubated at 25° C. with the fluorogenic substrate H-DPro-Phe-Arg-AFC and various concentrations of the test compound. Residual enzyme activity (initial rate of reaction) was determined by measuring the change in […] at 410 nm and the IC50 value for the test compound was determined.

Series [2] in a line: Intrinsic clearance in human liver microsomes. Type of series: in vitro ADME. Conditions: human liver microsomes 0.5 mg/mL, 5 μM test compound, 37° C.; read-out: Human liver microsome (Clint μL/min/mg protein). Here is the method:
as §1

A short description of series [3]: In vitro permeability, Caco-2 model for oral absorption. Conditions: human, apical to basolateral, 50 μM test compound, 37° C. Format: in vitro ADME. How it is done:
In vitro permeability was determined using the Caco-2 model for oral absorption. The methodology was adapted from standard published methods (Wang Z, Hop C. E., Leung K. H. and Pang J. (2000) J Mass Spectrom 35(1); 71-76). The Caco-2 monolayers were established in a Biocoat™ HTS fibrillar collagen 24 well multiwell insert system (1.0 μm, PET membrane, Corning 354803) in which 200,000 cells were seeded into each insert and maintained over 3 days before being utilised in the permeability assay. For the assay, 50 μM test compound is added to the apical side of the inserts and incubated for 1 hour at 37° C. on a shaking platform (120 rpm). Apical to basolateral transport was determined by measuring the test article in both compartments by LCMS following the 1 hour incubation. The integrity of the Caco-2 monolayers was confirmed by two methods, (i) comparison of pre- and post-experiment transepithelial electrical resistance (TEER) and, (ii) assessment of Lucifer Yellow flux.
On the technique in general: Passage across Caco-2 layers is used to estimate intestinal permeability.

Human KLK1, sequence (P06870 25-262): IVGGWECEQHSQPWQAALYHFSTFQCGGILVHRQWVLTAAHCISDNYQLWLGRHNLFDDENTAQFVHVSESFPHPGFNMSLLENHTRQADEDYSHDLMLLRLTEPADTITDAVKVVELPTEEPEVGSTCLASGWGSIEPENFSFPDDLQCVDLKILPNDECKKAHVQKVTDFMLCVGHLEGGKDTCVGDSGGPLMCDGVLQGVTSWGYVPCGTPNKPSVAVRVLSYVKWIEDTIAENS
Human Factor XIIa, sequence (P00748 373-615): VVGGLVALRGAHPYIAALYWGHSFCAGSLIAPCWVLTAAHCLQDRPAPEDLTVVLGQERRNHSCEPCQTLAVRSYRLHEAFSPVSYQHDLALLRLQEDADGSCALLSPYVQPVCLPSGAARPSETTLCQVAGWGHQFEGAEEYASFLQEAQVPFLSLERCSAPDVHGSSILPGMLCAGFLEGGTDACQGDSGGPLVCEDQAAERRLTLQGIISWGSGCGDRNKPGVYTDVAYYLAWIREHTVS
Human plasma kallikrein, sequence (P03952 391-638): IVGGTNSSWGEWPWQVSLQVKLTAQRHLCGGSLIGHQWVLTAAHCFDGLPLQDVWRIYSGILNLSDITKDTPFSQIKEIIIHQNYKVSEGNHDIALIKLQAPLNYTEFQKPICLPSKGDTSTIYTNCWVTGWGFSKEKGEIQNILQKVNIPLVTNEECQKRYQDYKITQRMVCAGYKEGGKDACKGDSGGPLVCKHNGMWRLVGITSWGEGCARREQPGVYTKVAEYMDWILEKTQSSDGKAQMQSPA
Human plasma kallikrein, sequence (P03952 20-390): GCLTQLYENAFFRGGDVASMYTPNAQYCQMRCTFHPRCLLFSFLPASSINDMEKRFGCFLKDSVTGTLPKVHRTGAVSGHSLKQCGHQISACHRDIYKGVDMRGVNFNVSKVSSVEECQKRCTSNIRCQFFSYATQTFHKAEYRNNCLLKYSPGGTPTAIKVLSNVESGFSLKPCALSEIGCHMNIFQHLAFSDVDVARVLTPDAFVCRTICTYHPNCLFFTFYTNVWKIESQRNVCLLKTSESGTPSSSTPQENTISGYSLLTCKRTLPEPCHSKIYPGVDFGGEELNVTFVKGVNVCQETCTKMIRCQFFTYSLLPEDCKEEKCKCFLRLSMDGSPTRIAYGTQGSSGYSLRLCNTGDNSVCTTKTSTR

Broadly, the IC50 is the midpoint of a concentration-inhibition curve. By Papp is commonly meant the rate of passage across a membrane or cell layer, normalised by area and donor concentration. The low end stands for poor permeation, the high end for ready permeation. `COCc1nn(Cc2ccc(Cn3cc(C)cn3)cc2)cc1C(=O)NCc1nccc(OC)c1F` [Example 1, N-[(3-fluoro-4-methoxypyridin-2-yl)methyl]-3-(methoxymethyl)-1-({4-[(4-methylpyrazol-1-yl)methyl]phenyl}methyl)pyrazole-4-carboxamide]: the IC50 is 0.0261 µM at Human plasma kallikrein, above 40 µM against Human KLK1, above 40 µM at Human FXIa and above 40 µM on Human Factor XIIa. For the same compound, the microsomal CLint at 5 μM in series [1] worked out at 52 µL/min/mg; in series [2], 33 µL/min/mg. Besides, the Papp at 1 h, 50 μM in series [3] turned out to be 28 ×10⁻⁶ cm/s.

Turning to `COc1ccnc(CNC(=O)c2cn(Cc3ccc(Cn4ccccc4=O)cc3)nc2N(C)C)c1F` [Example 7, 3-(dimethylamino)-N-[(3-fluoro-4-methoxypyridin-2-yl)methyl]-1-({4-[(2-oxopyridin-1-yl)methyl]phenyl}methyl)pyrazole-4-carboxamide], the IC50 is 0.018 µM at Human plasma kallikrein, above 40 µM on Human KLK1, above 40 µM against Human FXIa and above 40 µM at Human Factor XIIa. Also, the results for the microsomal CLint at 5 μM in series [1] and in series [2] were 8 µL/min/mg and 22 µL/min/mg, respectively. For the same compound, the Papp at 1 h, 50 μM in series [3] was determined as 10 ×10⁻⁶ cm/s.

On to `COCc1nn(Cc2ccc(Cn3ccccc3=O)cc2)cc1C(=O)NCc1nccc(C)c1F` [Example 28, N-[(3-fluoro-4-methylpyridin-2-yl)methyl]-3-(methoxymethyl)-1-({4-[(2-oxopyridin-1-yl)methyl]phenyl}methyl)pyrazole-4-carboxamide], for which the IC50 at Human plasma kallikrein is 0.163 µM; on Human KLK1 it was above 40 µM; against Human FXIa, above 40 µM; on Human Factor XIIa, above 40 µM.

For the compound `COCc1nn(Cc2ccc(Cn3ccccc3=O)cc2)cc1C(=O)NCc1nccc(C)c1Cl` [Example 29, N-[(3-chloro-4-methylpyridin-2-yl)methyl]-3-(methoxymethyl)-1-({4-[(2-oxopyridin-1-yl)methyl]phenyl}methyl)pyrazole-4-carboxamide], the IC50 on Human plasma kallikrein is 0.217 µM; on Human KLK1 it was above 40 µM; against Human FXIa, above 40 µM; at Human Factor XIIa, above 40 µM.

Take `COCc1nn(Cc2ccc(Cn3ccccc3=O)cc2)cc1C(=O)NCc1cc(OC)n(C)n1` [Example 31, N-[(5-methoxy-1-methylpyrazol-3-yl)methyl]-3-(methoxymethyl)-1-({4-[(2-oxopyridin-1-yl)methyl]phenyl}methyl)pyrazole-4-carboxamide]: the half-maximal inhibitory concentration (IC50) at Human plasma kallikrein is 0.462 µM; against Human KLK1, above 40 µM; against Human FXIa it was above 40 µM; at Human Factor XIIa, above 40 µM.

As to `COCc1nn(Cc2ccc(Cn3ccccc3=O)cc2)cc1C(=O)NCc1cccc(OC)c1C#N` [Example 38, N-[(2-cyano-3-methoxyphenyl)methyl]-3-(methoxymethyl)-1-({4-[(2-oxopyridin-1-yl)methyl]phenyl}methyl)pyrazole-4-carboxamide], the IC50 on Human plasma kallikrein was 0.301 µM; at Human KLK1, above 4 µM; against Human FXIa it was above 40 µM; at Human Factor XIIa, above 4 µM.

For the compound `COCc1nn(Cc2ccc(Cn3ccccc3=O)cc2)cc1C(=O)NCc1cc(OC)ccc1C` [Example 41, N-[(5-methoxy-2-methylphenyl)methyl]-3-(methoxymethyl)-1-({4-[(2-oxopyridin-1-yl)methyl]phenyl}methyl)pyrazole-4-carboxamide], the IC50 on Human plasma kallikrein was 0.149 µM; against Human KLK1, above 4 µM; against Human FXIa, above 40 µM; at Human Factor XIIa it was above 4 µM.

As to `COCc1nn(Cc2ccc(Cn3ccccc3=O)cc2)cc1C(=O)NCc1c(C(N)=O)ccc(OC)c1F` [Example 42, N-[(6-carbamoyl-2-fluoro-3-methoxyphenyl)methyl]-3-(methoxymethyl)-1-({4-[(2-oxopyridin-1-yl)methyl]phenyl}methyl)pyrazole-4-carboxamide], the IC50 was 0.0036 µM on Human plasma kallikrein, above 4 µM against Human KLK1, above 40 µM on Human FXIa and above 4 µM on Human Factor XIIa. In addition, the microsomal CLint at 5 μM turned out to be 11 µL/min/mg in series [1] and 8 µL/min/mg in series [2]. The compound also showed a Papp at 1 h, 50 μM in series [3] of 4 ×10⁻⁶ cm/s.

The inhibition is the drop in the measured response relative to a control, in per cent. `COc1ccc(C#N)c(CNC(=O)c2cn(Cc3ccc(Cn4ccccc4=O)cc3)nc2N(C)C)c1F` [Example 44, N-[(6-cyano-2-fluoro-3-methoxyphenyl)methyl]-3-(dimethylamino)-1-({4-[(2-oxopyridin-1-yl)methyl]phenyl}methyl)pyrazole-4-carboxamide]: the IC50 is 0.0088 µM on Human plasma kallikrein, above 80 µM against Human KLK1, above 40 µM on Human FXIa and above 40 µM on Human Factor XIIa. Also, the inhibition at 40 µM on Human FXIa (40 μM test compound, read-out: % Inhibition @ 40 μM (human FXIa)) was determined as 32%. The values for the microsomal CLint at 5 μM in series [1] and in series [2] were 101 µL/min/mg and 162 µL/min/mg, respectively. The compound further yielded a Papp at 1 h, 50 μM in series [3] of 17 ×10⁻⁶ cm/s.

For the compound `COCc1nn(Cc2ccc(CN3CCCCC3=O)cc2)cc1C(=O)NCc1c(C#N)ccc(OC)c1F` [Example 57, N-[(6-cyano-2-fluoro-3-methoxyphenyl)methyl]-3-(methoxymethyl)-1-({4-[(2-oxopiperidin-1-yl)methyl]phenyl}methyl)pyrazole-4-carboxamide], the IC50 is 0.0279 µM on Human plasma kallikrein, above 40 µM at Human KLK1, above 40 µM against Human FXIa and above 40 µM on Human Factor XIIa.

As to `COCc1nn(Cc2cnc(N3CCCC3)nc2)cc1C(=O)NCc1c(C#N)ccc(OC)c1F` [Example 58, N-[(6-cyano-2-fluoro-3-methoxyphenyl)methyl]-3-(methoxymethyl)-1-{[2-(pyrrolidin-1-yl)pyrimidin-5-yl]methyl}pyrazole-4-carboxamide], the concentration for half-maximal inhibition (IC50) was 0.057 µM at Human plasma kallikrein, above 40 µM against Human KLK1, 8.5 µM on Human FXIa and above 40 µM at Human Factor XIIa. In series [3], this compound showed a Papp at 1 h, 50 μM of 26 ×10⁻⁶ cm/s.

Consider `COCc1nn(Cc2ccc(Cn3ccccc3=O)cc2)cc1C(=O)NCc1c(Cl)cccc1-n1cnnn1` [Example 73, N-{[2-chloro-6-(1,2,3,4-tetrazol-1-yl)phenyl]methyl}-3-(methoxymethyl)-1-({4-[(2-oxopyridin-1-yl)methyl]phenyl}methyl)pyrazole-4-carboxamide], for which the IC50 on Human plasma kallikrein is 0.0231 µM; on Human KLK1, above 4 µM; against Human FXIa, above 40 µM; at Human Factor XIIa it was above 4 µM. Also, the apparent permeability coefficient (Papp) at 1 h, 50 μM in series [3] is 4 ×10⁻⁶ cm/s.

Turning to `COCc1nn(Cc2ccc(N3CCC(F)(F)C3)nc2)cc1C(=O)NCc1c(-n2cnnn2)ccc(OC)c1F` [Example 87, 1-{[6-(3,3-difluoropyrrolidin-1-yl)pyridin-3-yl]methyl}-N-{[2-fluoro-3-methoxy-6-(1,2,3,4-tetrazol-1-yl)phenyl]methyl}-3-(methoxymethyl)pyrazole-4-carboxamide], the IC50 is 0.0008 µM on Human plasma kallikrein, above 40 µM against Human KLK1, 0.161 µM against Human FXIa and above 40 µM on Human Factor XIIa. In series [3], this compound came in with a Papp at 1 h, 50 μM of 4 ×10⁻⁶ cm/s.

Turning to `COc1ccc(-n2cnnn2)c(CNC(=O)c2cnn(Cc3cnc(N4CCCC4)nc3)c2)c1F` [Reference Example K, reference compound], the IC50 at Human plasma kallikrein is 0.002 µM; at Human KLK1, above 40 µM; at Human FXIa it was 0.076 µM; at Human Factor XIIa it was above 40 µM. Further, the Papp at 1 h, 50 μM in series [3] is 3 ×10⁻⁶ cm/s.

Values taken from patent publication US11180484B2, “Pyrazole derivatives as plasma kallikrein inhibitors” (KALVISTA PHARMACEUTICALS LIMITED, priority 2016, dated 2021).
